Test results from patent publication US10000476B2, “Pyridone derivative, pharmaceutical containing the same and methods of use thereof” (KAKEN PHARMACEUTICAL CO., LTD., priority 2011, dated 2018).

Tests used:
Type in all cases: biochemical
TACE = TACE (Homo sapiens (Human), UniProt P78536); experiment: TACE inhibition test (in vitro); details: fluorescent synthetic substrate, 37° C., 1.5 hours
How it was run: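 Recombinant enzyme (cDNA from THP-1 cells, expressed in mammalian or insect cells) with quenched substrate Nma-Leu-Ala-Gln-Ala-Val-Arg-Ser-Ser-Lys(Dnp)-D-Arg-NH2. Incubated 1.5 h at 37 °C; fluorescence read at ex 355/em 460 nm; IC50 from inhibition rate.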

human MMP-2 = human MMP-2 (Homo sapiens (Human), UniProt P08253); experiment: MMP-2 inhibition test; details: read-out: MMPs IC50 MMP-2
Sequence of human MMP-2 (P08253 110-660): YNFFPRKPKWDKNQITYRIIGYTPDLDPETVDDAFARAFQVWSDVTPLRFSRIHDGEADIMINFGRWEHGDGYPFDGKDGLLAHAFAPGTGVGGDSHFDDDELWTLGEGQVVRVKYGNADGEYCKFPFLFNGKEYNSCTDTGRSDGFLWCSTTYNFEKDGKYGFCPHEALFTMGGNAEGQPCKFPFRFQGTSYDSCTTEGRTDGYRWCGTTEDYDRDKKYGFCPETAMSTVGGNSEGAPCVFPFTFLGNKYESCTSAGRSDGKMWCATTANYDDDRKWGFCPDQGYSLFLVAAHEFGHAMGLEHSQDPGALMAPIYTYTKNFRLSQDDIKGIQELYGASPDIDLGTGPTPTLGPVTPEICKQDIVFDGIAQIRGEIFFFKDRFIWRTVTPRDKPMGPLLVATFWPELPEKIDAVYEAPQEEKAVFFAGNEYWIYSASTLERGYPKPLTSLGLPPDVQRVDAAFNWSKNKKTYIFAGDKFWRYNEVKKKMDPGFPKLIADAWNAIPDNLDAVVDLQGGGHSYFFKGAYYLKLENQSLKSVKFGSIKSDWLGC
Protocol: (§1) MMP inhibition tests can be carried out, for example, using a fluorescent synthetic substrate based on the methods described in Bickett et al. (D. Mark Bickett et al., Anal. Biochem., 1993, 212, 58-64) and Nagase et al. (H. Nagase et al., J. Biol. Chem., 1994, 269, 20952-20957). The method for each MMP inhibition test is shown below.
90 μL (5 ng) of human MMP-2 (Calbiochem #444213) was mixed with 10 μL of 10 mM APMA, and activated by reacting at 37° C. for 1 hour. 10 μL of the resultant enzyme solution was diluted to 90 μL with an assay buffer A. The mixture was added to 90 μL of a 20 μM fluorescent substrate (MOCAc((7-methoxycoumarin-4-yl)acetyl)-Pro-Leu-Gly-Leu-A2pr(Dnp)-Ala-Arg-NH2, Peptide Institute Inc., #3163-v) (SEQ ID NO: 3) prepared with an assay buffer B, and reacted at 37° C. for 5 hours. Enzyme activity was then determined by measuring with a fluorescence intensity meter (Labsystems, Fluoroskan Ascent) at an excitation wavelength of 320 nm and a measurement wavelength of 405 nm.
(§2) From the enzyme activity in the presence or the absence of the test substance, the inhibition rate was determined, and the 50% inhibitiory concentration (IC50) of the test substance was calculated.

human MMP-9 = human MMP-9 (Homo sapiens (Human), UniProt P14780); experiment: MMP-9 inhibition test; details: read-out: MMPs IC50 MMP-9
Sequence of human MMP-9 (P14780 107-707): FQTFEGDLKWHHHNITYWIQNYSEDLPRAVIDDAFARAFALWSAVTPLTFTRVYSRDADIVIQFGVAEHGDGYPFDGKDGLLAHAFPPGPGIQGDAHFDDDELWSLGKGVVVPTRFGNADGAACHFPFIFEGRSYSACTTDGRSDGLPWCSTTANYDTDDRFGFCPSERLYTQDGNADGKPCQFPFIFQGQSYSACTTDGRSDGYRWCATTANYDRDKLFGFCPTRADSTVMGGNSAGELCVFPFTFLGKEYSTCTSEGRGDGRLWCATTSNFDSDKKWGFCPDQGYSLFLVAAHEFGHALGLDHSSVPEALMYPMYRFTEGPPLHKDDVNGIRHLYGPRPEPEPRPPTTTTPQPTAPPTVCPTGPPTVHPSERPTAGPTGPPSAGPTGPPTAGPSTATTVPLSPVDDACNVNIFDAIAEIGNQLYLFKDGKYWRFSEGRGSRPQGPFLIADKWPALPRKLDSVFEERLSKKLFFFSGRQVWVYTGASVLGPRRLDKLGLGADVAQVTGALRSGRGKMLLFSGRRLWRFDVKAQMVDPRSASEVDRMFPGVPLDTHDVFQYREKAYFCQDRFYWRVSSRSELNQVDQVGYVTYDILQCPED
Protocol: as §1
(§3) 90 μL (11 ng) of human MMP-9 (Calbiochem #444231) was mixed with 10 μL of 10 mM APMA, and activated by reacting at 37° C. for 2 hours. 10 μL of the resultant enzyme solution was diluted to 90 μL with an assay buffer A. The mixture was added to 90 μL of a 20 μM fluorescent substrate (Dnp-Pro-Cha-Gly-Cys(Me)-His-Ala-Lys(Nma)-NH2) (SEQ ID NO: 2) prepared with an assay buffer B, and reacted at 37° C. for 4 hours. Enzyme activity was then determined by measuring with a fluorescence intensity meter (Labsystems, Fluoroskan Ascent) at an excitation wavelength of 355 nm and a measurement wavelength of 460 nm.
as §2

human MMP-13 = human MMP-13 (Homo sapiens (Human), UniProt P45452); experiment: MMP-13 inhibition test; details: read-out: MMPs IC50 MMP-13
Protocol: as §1
as §3, with “(18” for “(11”, “MMP-13” for “MMP-9”, “# CC068) or 90 μL (130 ng) of human MMP-13 (Calbiochem #444287)” for “#444231)”, “1 hour.” for “2 hours.”
as §2

Sequence of TACE (P78536 215-824): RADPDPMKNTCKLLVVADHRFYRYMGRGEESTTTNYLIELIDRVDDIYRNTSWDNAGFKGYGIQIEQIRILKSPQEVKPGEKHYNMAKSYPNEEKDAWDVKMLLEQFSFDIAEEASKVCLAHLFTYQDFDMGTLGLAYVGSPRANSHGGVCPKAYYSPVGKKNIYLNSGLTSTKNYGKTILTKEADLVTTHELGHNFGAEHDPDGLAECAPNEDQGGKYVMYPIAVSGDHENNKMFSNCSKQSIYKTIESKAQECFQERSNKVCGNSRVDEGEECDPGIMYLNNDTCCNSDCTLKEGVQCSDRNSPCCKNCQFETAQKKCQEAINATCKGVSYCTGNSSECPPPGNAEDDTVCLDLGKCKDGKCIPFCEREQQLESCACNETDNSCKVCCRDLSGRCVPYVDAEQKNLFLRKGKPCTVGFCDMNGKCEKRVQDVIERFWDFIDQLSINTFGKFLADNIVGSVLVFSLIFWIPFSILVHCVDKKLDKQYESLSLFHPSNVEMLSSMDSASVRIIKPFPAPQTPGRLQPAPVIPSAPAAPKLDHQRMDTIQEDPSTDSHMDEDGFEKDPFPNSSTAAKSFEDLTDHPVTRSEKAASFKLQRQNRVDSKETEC

IC50 (TACE)	IC50 (human MMP-2)	IC50 (human MMP-9)	IC50 (human MMP-13)	Compound
< 0.1 µM	> 100 µM	> 100 µM	45 µM	Cc1cccn(CC2(c3ccccc3)NC(=O)NC2=O)c1=O (stereo not drawn) [Compound I-1, 5-[(3-methyl-2-oxopyridin-1(2H)-yl)methyl]-5-phenyl-imidazolidine-2,4-dione]
< 0.1 µM	29 µM	> 100 µM	> 100 µM	Cc1cccn(CC2(c3ccc(Oc4ccccc4)cc3)NC(=O)NC2=O)c1=O (stereo not drawn) [Compound I-9, 5-[(3-methyl-2-oxopyridin-1(2H)-yl)methyl]-5-(4-phenoxyphenyl)imidazolidine-2,4-dione]
< 0.1 µM	> 100 µM	> 100 µM	> 100 µM	Cc1cccn(CC2(c3ccc(F)c(F)c3)NC(=O)NC2=O)c1=O (stereo not drawn) [Compound I-10, 5-(3,4-difluorophenyl)-5-[(3-methyl-2-oxopyridin-1(2H)-yl)methyl] imidazolidine-2,4-dione]
< 0.1 µM	62 µM	> 100 µM	> 100 µM	COc1ccc(Cl)cc1C1(Cn2cccc(C)c2=O)NC(=O)NC1=O (stereo not drawn) [Compound I-27, 5-(5-chloro-2-methoxyphenyl)-5-[(3-methyl-2-oxopyridin-1(2H)-yl)methyl]imidazolidine-2,4-dione]
< 0.1 µM	> 100 µM	> 100 µM	> 100 µM	Cc1cccn(CC2(c3ccc(Cc4ccccc4)cc3)NC(=O)NC2=O)c1=O (stereo not drawn) [Compound I-40, 5-(4-benzylphenyl)-5-[(3-methyl-2-oxopyridin-1(2H)-yl)methyl]imidazolidine-2,4-dione]
< 0.1 µM	69 µM	> 100 µM	> 100 µM	Cc1cccn(CC2(c3ccc(Cc4ccc(F)cc4)cc3)NC(=O)NC2=O)c1=O (stereo not drawn) [Compound I-41, 5-[4-(4-fluorobenzyl)phenyl]-5-[(3-methyl-2-oxopyridin-1(2H)-yl)methyl] imidazolidine-2,4-dione]
< 0.1 µM	31 µM	67 µM	> 100 µM	Cc1cccn(CC2(c3cccc(-c4cccnc4)c3)NC(=O)NC2=O)c1=O (stereo not drawn) [Compound I-62]
< 0.1 µM	> 10 µM	> 100 µM	> 100 µM	Cc1cccn(CC2(c3ccc(OCc4ccccc4)cc3)NC(=O)NC2=O)c1=O (stereo not drawn) [Compound I-64]
< 0.1 µM	51 µM	> 100 µM	> 100 µM	Cc1cccn(CC2(c3ccc(Oc4ccccc4F)cc3)NC(=O)NC2=O)c1=O (stereo not drawn) [Compound I-86]
